Values of other authors in US20020177624A1, “Acetate-lactate buffering vaginal gel and for method of making same and treating bacterial vaginosis” (priority 2001, published 2002).

Tested on: bacterial vaginosis
Conditions: oral administration

For `Cc1ncc([N+](=O)[O-])n1CCO` [metronidazole], the “success of treatment of bacterial vaginosis” value is listed as “often highly successful”.
